Results taken from PubChem BioAssay (NCI).
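Step 1: Grow cells in 96-well plates. Step 2: Expose to compound for 48 hours at 5 concentrations. Step 3: Interpolate endpoints linearly; if unreached, use highest concentration. GI50 = concentration required for 50% inhibition of growth. TGI marks complete inhibition of growth.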

How the values were obtained:
Experiment in all cases: growth of human tumour cells (NCI), 48 h
[1] = test system: UACC-257 melanoma
[2] = test system: 786-0 renal
[3] = test system: COLO 205 colon
[4] = test system: UO-31 renal
[5] = test system: MDA-MB-231 breast
[6] = test system: A498 renal
[7] = test system: OVCAR-5 ovarian
[8] = test system: SF-268 CNS
[9] = test system: HS 578T breast
[10] = test system: EKVX NSCLC

SMILES	TGI [1]	TGI [2]	TGI [3]	TGI [4]	TGI [5]	TGI [6]	TGI [7]	TGI [8]	TGI [9]	TGI [10]	GI50 [1]	GI50 [2]	GI50 [3]	GI50 [5]	GI50 [6]	GI50 [7]	GI50 [8]	GI50 [9]	GI50 [10]	GI50 [4]
O=C(O)c1cccc(F)c1C(=O)c1ccc2ccccc2c1	> 100 µM	> 100 µM	6.1 µM	> 100 µM	> 100 µM	> 100 µM	> 100 µM	> 100 µM	> 100 µM	> 100 µM	–	–	–	–	–	–	–	–	–	–
COc1ccc2c(C(=O)NCCCCCC(=O)O)cc3cc4c(cc3c2c1)OCO4	> 100 µM	> 100 µM	> 100 µM	–	> 100 µM	> 100 µM	> 100 µM	> 100 µM	> 100 µM	> 100 µM	> 100 µM	> 100 µM	> 100 µM	99.5 µM	> 100 µM	> 100 µM	58 µM	> 100 µM	> 100 µM	–
Cc1nc(N(C)C)nc(-c2cccc(-c3ccn(CCN(C)C)n3)c2)c1C	> 20 µM	> 20 µM	> 20 µM	> 20 µM	> 20 µM	> 20 µM	> 20 µM	> 20 µM	> 20 µM	–	> 20 µM	> 20 µM	> 20 µM	> 20 µM	0.628 µM	> 20 µM	> 20 µM	12.7 µM	–	9.63 µM
OC(c1cc2c(Cl)cc(Cl)cc2c2cc(C(F)(F)F)ccc12)C1CCCCN1 (centres undefined)	3.7 µM	3.5 µM	3.55 µM	2.99 µM	3.24 µM	2.9 µM	3.15 µM	3.82 µM	3.72 µM	–	1.92 µM	1.66 µM	1.88 µM	1.48 µM	1.46 µM	1.58 µM	1.86 µM	1.59 µM	–	1.41 µM
CCCCCCCCCCCC(=O)[O][Sn]([CH2]CCC)([CH2]CCC)[CH2]CCC	0.181 µM	0.132 µM	0.122 µM	0.0849 µM	0.113 µM	0.0883 µM	0.164 µM	0.199 µM	0.296 µM	–	0.0533 µM	0.0539 µM	0.0509 µM	0.0317 µM	0.0241 µM	0.0548 µM	0.0535 µM	0.0549 µM	–	0.0347 µM
COc1ccc(/C=C/c2cnnc3ccccc23)cc1OC	> 10 µM	> 10 µM	> 10 µM	–	> 10 µM	> 10 µM	> 10 µM	> 10 µM	> 10 µM	> 10 µM	–	–	–	–	–	–	–	–	–	–
C/C(=N\O)c1ccc(Nc2cc(-c3ccccc3)nc3c(O)cccc23)cc1	24.4 µM	31.8 µM	42.6 µM	33.7 µM	11.8 µM	31 µM	47.4 µM	–	62.4 µM	> 100 µM	11.7 µM	17.2 µM	20.7 µM	2.46 µM	14.5 µM	23.8 µM	–	15.9 µM	18.9 µM	14.8 µM
Nc1nc(-c2ccccc2Cl)cc(-c2ccc(Cl)cc2Cl)n1	55.2 µM	> 100 µM	15.5 µM	> 100 µM	> 100 µM	22.8 µM	> 100 µM	81.6 µM	60.7 µM	–	11.9 µM	20.2 µM	3.52 µM	9.3 µM	3.34 µM	8.09 µM	5.01 µM	6.04 µM	–	13.5 µM
Cc1cc(=O)[nH]c2c1C(=O)C(=O)C=C2	> 100 µM	36.3 µM	> 100 µM	> 100 µM	45.2 µM	–	> 100 µM	43.7 µM	> 100 µM	> 100 µM	> 100 µM	18.7 µM	> 100 µM	21.2 µM	–	41.3 µM	18.7 µM	40.4 µM	54 µM	77.3 µM
C=C(C=O)[C@@H]1CC=C(C=O)CC1	57.9 µM	80 µM	–	> 76 µM	20.1 µM	77.8 µM	73 µM	16.1 µM	42.4 µM	67.6 µM	15 µM	16.8 µM	–	6.88 µM	28.8 µM	26.5 µM	2.94 µM	3.36 µM	14.5 µM	5.3 µM
O=C1CCCC1C(O)(C(F)(F)Cl)C(F)(F)Cl (centres undefined)	> 10 µM	> 10 µM	> 10 µM	–	> 10 µM	> 10 µM	> 10 µM	> 10 µM	> 10 µM	> 10 µM	–	–	–	–	–	–	–	–	–	–
Cn1cc(C2=C(c3cn(CCCN/C(N)=N\[N+](=O)[O-])c4ccccc34)C(=O)NC2=O)c2ccccc21	21.8 µM	> 25 µM	6.44 µM	24.7 µM	16.5 µM	9.6 µM	> 25 µM	11.6 µM	14.5 µM	–	7.12 µM	5.07 µM	1.24 µM	3.8 µM	2.85 µM	11.4 µM	3.11 µM	1.42 µM	–	8.71 µM
c1ccc2c(c1)-c1nc3ccccc3cc1C2N1CCOCC1 (centres undefined)	> 100 µM	> 100 µM	> 100 µM	–	> 100 µM	> 100 µM	> 100 µM	> 100 µM	> 100 µM	> 100 µM	–	–	–	–	–	–	–	–	–	–
